# Tests used:
# Aurora A kinase [1] = target: T1, Aurora A kinase (Homo sapiens, UniProt O14965); test: fluorescence anisotropy competition assay (TPX2 displacement); type: binding; set-up: gene AURKA; with TPX2; conditions: read-out: K i ^b
# T1 sequence (O14965 1-403): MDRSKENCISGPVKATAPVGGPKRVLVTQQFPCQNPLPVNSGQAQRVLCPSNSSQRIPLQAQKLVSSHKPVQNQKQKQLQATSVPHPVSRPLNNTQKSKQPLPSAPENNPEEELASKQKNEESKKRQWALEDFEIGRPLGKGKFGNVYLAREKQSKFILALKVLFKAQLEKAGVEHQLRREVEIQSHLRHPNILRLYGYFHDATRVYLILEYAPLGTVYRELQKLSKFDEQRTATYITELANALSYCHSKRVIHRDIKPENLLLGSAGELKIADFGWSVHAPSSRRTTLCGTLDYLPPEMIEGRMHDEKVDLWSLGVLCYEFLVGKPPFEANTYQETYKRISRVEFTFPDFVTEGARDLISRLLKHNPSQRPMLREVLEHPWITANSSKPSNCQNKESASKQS
# Aurora A kinase [2] = target: T1, Aurora A kinase; test: X-ray crystal structure (Ki by fluorescence anisotropy, from ref […]); type: binding; set-up: gene AURKA; conditions: cited from earlier work
Ki (Aurora A kinase [1]) [µM],SMILES,Ki (Aurora A kinase [2]) [µM]
2.3,Cc1ccc(-c2cc(C(=O)O)c3ccccc3n2)cc1Br [compound 10],
8.7,Cc1ccc(-c2cc(C(=O)O)c3ccccc3n2)cc1F [compound 9],
,O=C(O)c1cc(-c2cccc(F)c2)nc2ccccc12 [compound 2],16.5

# From article PMC5591577, “Computationally-guided optimization of small-molecule inhibitors of the Aurora A kinase–TPX2 protein–protein interaction” (Chemical Communications (Cambridge, England), 2017)
